Source: patent publication US20030092735A1, “Use of substance P antagonists for the treatment of chronic fatigue syndrome and/or fibromyalgia and use of NK-1 receptor antagonists for the treatment of chronic fatigue syndrome” (priority 1998, published 2003)

Assays:
[1] = system: Patients with chronic fatigue syndrome; test: CFS Clinical Study (randomized, double-blind, placebo-controlled); type: in vivo, human; settings: doses of 10 to 20 mg/day, myalgias, cognitive impairment, baseline vs end of treatment
Excerpt: Patients with chronic fatigue syndrome according to the CDC (Centre for Disease Control) definition (G. P. Holmes et al.: A working case definition. Ann. intern. Med; 108 (1988), 387-389) are included in the trial. Other recognised definitions may be used to identify patients with chronic fatigue syndrome as appropriate. Both male and female patients are eligible, provided they are over 18 years of age and under 65 years of age. The main exclusion criteria comprise pregnant and lactating women; in addition patients suffering from other diseases that cause significant fatigue as well as patients who suffer from active infections are excluded. […]
The study is in the form of a prospective, randomized, double-blind, placebo-controlled, parallel-group study using different doses of a Preferred A Compound of the Invention, (e.g. (2R,4S)-N-[1-(3,5-bistrifluoromethylbenzoyl)-2-(4-chlorobenzyl)-piperidin-4-yl-quinolin-4-carboxamide). […] Adverse events are assessed during the active treatment period. […]
Other parameters which are evaluated include cognitive impairment (to be measured by visual analog scale [VAS]) and the assessment of myalgias. […] The assessment of each body region is done by the patients themselves; the total score is calculated as the sum of the regional scores. […]

[2] = system: patients who meet the ACR criteria for primary fibromyalgia; test: Fibromyalgia Clinical Study (randomized, double-blind, placebo-controlled); type: in vivo, human; settings: doses of 10 to 20 mg/day; response = 35% or higher reduction in individual pain score, baseline versus end of treatment
Excerpt: The study is in the form of a prospective, randomized, double-blind, placebo-controlled, parallel-group study using different doses of Compound of the Invention. Male and female patients (over 18 years) who meet the ACR (American College of Rheumatology) cirteria for primary fibromyalgia are included in this trial. The main exclusion criteria include pregnant and lactating woman, patients suffering from other inflammatory rheumatological diseases (such as rheumatoid arthritis or collagenoses), severe neuropathies, clinically manifest endocrinopathies, bone diseases, severe cardial, renal or hepatic impairment and acute or chronic infections.
Patients are randomly assigned to one of five study arms, placebo, 1 mg, 10 mg, 20 mg and 40 mg of test compound. The duration of treatment is two weeks. Before, on day 7 and at the end of the treatment phase, a physical examination, pain assessment and blood testing are performed. […] Adverse events are assessed during the active treatment period.
To evaluate pain, the pain score, a visual analogue scale and clinical examination of tenderpoints is used. […] The assessment of each body region is done by the patients themselves; the total score is calculated as the sum of the regional scores. […]

[3] = system: patients who meet the ACR criteria for primary fibromyalgia; settings: Amitryptilin regarded as an effective treatment in fibromyalgia; comparator value; cited from earlier work

SMILES | reduction in the score for one or more symptoms of CFS [1] [%] | response rates for fibromyalgia treatment [2] | response rates in fibromyalgia (of patients) [3] [%]
O=C(N[C@H]1CCN(C(=O)c2cc(C(F)(F)F)cc(C(F)(F)F)c2)[C@H](Cc2ccc(Cl)cc2)C1)c1ccnc2ccccc12 [(2R,4S)-N-[1-(3,5-bistrifluoromethylbenzoyl)-2-(4-chlorobenzyl)-piperidin-4-yl-quinolin-4-carboxamide] | ≥ 20 | at least equivalent to or comparable with those achieved with Amitryptilin | 
CN(C)CCC=C1c2ccccc2CCc2ccccc21 [Amitryptilin] |  |  | 20 to 30
